In US20190367516A1 (Bayer Pharma Aktiengesellschaft, priority 2015, published 2019):

Legend:
human M2 receptor [1] = target: T1, human M2 receptor (Homo sapiens, UniProt P08172); type: cell-based; conditions: shift in the acetylcholine dose-response curve (Allosteric EC50 shift, GraphPad PRISM); α >1 = positive cooperativity
T1 sequence (P08172 1-466): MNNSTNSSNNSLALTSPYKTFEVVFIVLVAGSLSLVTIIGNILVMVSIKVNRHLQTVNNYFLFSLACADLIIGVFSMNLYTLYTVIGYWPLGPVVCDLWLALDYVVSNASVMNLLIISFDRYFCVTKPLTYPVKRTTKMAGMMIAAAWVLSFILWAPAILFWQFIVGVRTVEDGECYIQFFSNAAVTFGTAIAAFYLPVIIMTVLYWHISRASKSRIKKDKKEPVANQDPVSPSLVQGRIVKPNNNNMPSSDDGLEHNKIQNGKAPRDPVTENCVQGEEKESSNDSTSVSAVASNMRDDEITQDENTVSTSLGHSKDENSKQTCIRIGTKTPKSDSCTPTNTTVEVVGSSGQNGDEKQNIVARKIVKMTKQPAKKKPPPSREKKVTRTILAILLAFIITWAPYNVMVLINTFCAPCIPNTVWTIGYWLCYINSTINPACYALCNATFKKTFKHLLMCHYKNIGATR
Experimental: B-1.2. Determination of Positive Cooperativity (α Factor)
In contrast to the EC50 determination of the test substances (see B-1.1), however, this is not done using one acetylcholine concentration; instead, every concentration of the test substance is combined with an acetylcholine 8-point dose-response curve. […] The shift in the acetylcholine dose-response curve in the presence of increasing concentrations of the test substance is analysed and quantified by means of GraphPad PRISM (Allosteric EC50 shift). […] Positive cooperativity is the hallmark of a positive allosteric modulator. […] The greater the magnitude of the α value, the greater the extent of cooperativity between orthosteric and allosteric.

human M2 receptor [2] = target: T1, human M2 receptor; conditions: Receptor activity EC50, M2-GIRK1/4 activation test, acetylcholine at EC20; allosteric potency; in some cases mean values from two or more determinations

Structure (SMILES) | Cooperativity (alpha factor) (human M2 receptor [1]) | EC50 (human M2 receptor [2]) [nM]
CC[C@@H](NC(=O)c1cn(-c2ccc(F)cc2F)c2nc(N3CC4CNC(=O)C4C3)ccc2c1=O)C(F)(F)F (mixture of isomers) [Example 221, 1-(2,4-Difluorophenyl)-4-oxo-7-[4-oxohexahydrpyrrolo[3,4-c]pyrrol-2(1H)-yl]-N-[(2R)-1,1,1-trifluorobutan-2-yl]-1,4-dihydro-1,8-naphthyridine-3-carboxamide] | 24 | 106
CC[C@@H](NC(=O)c1cn(-c2ccc(F)cc2F)c2nc(N3CCC(O)C3=O)ccc2c1=O)C(F)(F)F (mixture of isomers) [Example 224, 1-(2,4-Difluorophenyl)-7-[3-hydroxy-2-oxopyrrolidin-1-yl]-4-oxo-N-[(2R)-1,1,1-trifluorobutan-2-yl]-1,4-dihydro-1,8-naphthyridine-3-carboxamide] | 31 | 157
CC(COC(F)(F)F)NC(=O)c1cn(-c2ccc(F)cc2F)c2nc(N3CC[C@H](F)C3)ccc2c1=O (mixture of isomers) [Example 227, 1-(2,4-Difluorophenyl)-7-[(3S)-3-fluoropyrrolidin-1-yl]-4-oxo-N-[1-(trifluoromethoxy)propan-2-yl]-1,4-dihydro-1,8-naphthyridine-3-carboxamide] | 14 | 73
CC(COC(F)(F)F)NC(=O)c1cn(-c2ccc(F)cc2F)c2nc(N(C)C)ccc2c1=O (racemic) [Example 231, 1-(2,4-Difluorophenyl)-7-(dimethylamino)-4-oxo-N-[1-(trifluoromethoxy)propan-2-yl]-1,4-dihydro-1,8-naphthyridine-3-carboxamide] | 12 | 120
CC(COC(F)(F)F)NC(=O)c1cn(-c2ccc(F)cc2F)c2nc(N3CCCC3)ccc2c1=O (racemic) [Example 232, 1-(2,4-Difluorophenyl)-4-oxo-7-(pyrrolidin-1-yl)-N-[1-(trifluoromethoxy)propan-2-yl]-1,4-dihydro-1,8-naphthyridine-3-carboxamide] | 8 | 97
O=C(NC(COC(F)(F)F)c1ccccc1)c1cn(-c2ccc(F)cc2F)c2nc(N3C[C@@H](O)CC3=O)ccc2c1=O (mixture of isomers) [Example 233, 1-(2,4-Difluorophenyl)-7-[(4S)-4-hydroxy-2-oxopyrrolidin-1-yl]-4-oxo-N-[1-phenyl-2-(trifluoromethoxy)ethyl]-1,4-dihydro-1,8-naphthyridine-3-carboxamide] | 41 | 57
O=C(NC(c1c(F)cccc1F)C(F)(F)F)c1cn(-c2ccc(F)cc2F)c2nc(N3CC[C@H](F)C3)ccc2c1=O (mixture of isomers) [Example 241, 1-(2,4-Difluorophenyl)-N-[1-(2,6-difluorophenyl)-2,2,2-trifluoroethyl]-7-[(3S)-3-fluoropyrrolidin-1-yl]-4-oxo-1,4-dihydro-1,8-naphthyridine-3-carboxamide] | 18 | 21
O=C(NC(c1c(F)cccc1F)C(F)(F)F)c1cn(-c2ccc(F)cc2F)c2nc(N3C[C@@H](O)CC3=O)ccc2c1=O (mixture of isomers) [Example 244, 1-(2,4-Difluorophenyl)-N-[1-(2,6-difluorophenyl)-2,2,2-trifluoroethyl]-7-[(4S)-4-hydroxy-2-oxopyrrolidin-1-yl]-4-oxo-1,4-dihydro-1,8-naphthyridine-3-carboxamide] | 58 | 22
CC[C@@H](NC(=O)c1cn(-c2ccc(F)cc2F)c2nc(N3CC4CC4(O)C3)ccc2c1=O)C(F)(F)F (mixture of isomers) [Example 267, 1-(2,4-Difluorophenyl)-7-[1-hydroxy-3-azabicyclo[3.1.0]hex-3-yl]-4-oxo-N-[(2R)-1,1,1-trifluorobutan-2-yl]-1,4-dihydro-1,8-naphthyridine-3-carboxamide] | 28 | 24
CC[C@@H](NC(=O)c1cn(-c2c(F)cccc2F)c2nc(N3CCC(C)(O)C3)ccc2c1=O)C(F)(F)F (mixture of isomers) [Example 276, 1-(2,6-Difluorophenyl)-7-[3-hydroxy-3-methylpyrrolidin-1-yl]-4-oxo-N-[(2R)-1,1,1-trifluorobutan-2-yl]-1,4-dihydro-1,8-naphthyridine-3-carboxamide] | 28 | 80

The remaining lines, values ahead:

Cooperativity (alpha factor) (human M2 receptor [1]) | EC50 (human M2 receptor [2]) [nM] | Structure (SMILES)
24 | 44 | CC[C@@H](NC(=O)c1cn(-c2c(F)cc(F)cc2F)c2nc(N3CCC(O)C3=O)ccc2c1=O)C(F)(F)F (mixture of isomers) [Example 280, 7-[3-Hydroxy-2-oxopyrrolidin-1-yl]-4-oxo-N-[(2R)-1,1,1-trifluorobutan-2-yl]-1-(2,4,6-trifluorophenyl)-1,4-dihydro-1,8-naphthyridine-3-carboxamide]
24 | 145 | O=C(NC(c1ccccc1Cl)C(F)(F)F)c1cn(-c2ccccc2F)c2nc(N3CCC(O)C3=O)ccc2c1=O (racemic) [Example 287, N-[1-(2-Chlorophenyl)-2,2,2-trifluoroethyl]-1-(2-fluorophenyl)-7-[3-hydroxy-2-oxopyrrolidin-1-yl]-4-oxo-1,4-dihydro-1,8-naphthyridine-3-carboxamide]
71 | 21 | O=C(NC(C1CC1)C(F)(F)F)c1cn(-c2c(F)cccc2F)c2nc(N3C[C@@H](O)CC3=O)ccc2c1=O (mixture of isomers) [Example 295, N-[1-Cyclopropyl-2,2,2-trifluoroethyl]-1-(2,6-difluorophenyl)-7-[(4S)-4-hydroxy-2-oxopyrrolidin-1-yl]-4-oxo-1,4-dihydro-1,8-naphthyridine-3-carboxamide]
12 | 30 | CC[C@@H](NC(=O)c1cn(-c2ccc(F)cc2F)c2nc(N3CC(C)CC3=O)ccc2c1=O)C(F)(F)F (mixture of isomers) [Example 301, 1-(2,4-Difluorophenyl)-7-[4-methyl-2-oxopyrrolidin-1-yl]-4-oxo-N-[(2R)-1,1,1-trifluorobutan-2-yl]-1,4-dihydro-1,8-naphthyridine-3-carboxamide]
24 | 9 | CC[C@@H](NC(=O)c1cn(-c2c(F)cccc2F)c2nc(N3CC4CC4(O)C3)ccc2c1=O)C(F)(F)F (mixture of isomers) [Example 304, 1-(2,6-Difluorophenyl)-7-[1-hydroxy-3-azabicyclo[3.1.0]hex-3-yl]-4-oxo-N-[(2R)-1,1,1-trifluorobutan-2-yl]-1,4-dihydro-1,8-naphthyridine-3-carboxamide]
21 | 14 | CC[C@@H](NC(=O)c1cn(-c2c(F)cccc2Cl)c2nc(N3CC4CC4(O)C3)ccc2c1=O)C(F)(F)F (mixture of isomers) [Example 310, 1-(2-Chloro-6-fluorophenyl)-7-[1-hydroxy-3-azabicyclo[3.1.0]hex-3-yl]-4-oxo-N-[(2R)-1,1,1-trifluorobutan-2-yl]-1,4-dihydro-1,8-naphthyridine-3-carboxamide]
20 | 25 | C[C@H](NC(=O)c1cn(-c2c(F)cccc2F)c2nc(N3CC4CC4(O)C3)ccc2c1=O)C(F)(F)F (mixture of isomers) [Example 311, 1-(2,6-Difluorophenyl)-7-[1-hydroxy-3-azabicyclo[3.1.0]hex-3-yl]-4-oxo-N-[(2S)-1,1,1-trifluoropropan-2-yl]-1,4-dihydro-1,8-naphthyridine-3-carboxamide]
